Results taken from patent US20220387383A1 (University of South Africa, priority 2019, published 2022).
“Also recorded” adds a separate entry of the source. Where two headings read alike, the source gives them in different places. Blank lines part the entries; values can stand above or below the compound they belong to.

How the values were obtained:
[1] = literature, in words, cited from earlier work
[2] = literature, in words, cited from earlier work; remark: listed apart in the source
[3] = system: PANC-1 pancreatic cancer cells; experiment: MTT assay for cell viability, PANC-1 pancreatic cancer cells; format: cell-based; conditions: Homo sapiens; PANC-1, MTT, 48 hours
Description: (§1) The A375 human malignant melanoma cells, PANC-1 pancreatic cancer cells and HEK293 human embryonic kidney cells were cultured in media containing 89% DMEM, 10% FBS and 1% penicillin-streptomycin. Once confluent, the cells were washed thrice with 1×PBS and detached from T75 flasks by incubating the cells with 2 mL trypsin-EDTA for 5-10 minutes at 37° C. 2 mL DMEM was added to the cells to stop the reaction of trypsin-EDTA. […] The intensity of this colour is proportional to the state of metabolic activity in the cells and therefore the extent of cell viability. MTT is therefore used to measure the extent to which the drugs are toxic. PANC-1 pancreatic cancer, A375 malignant melanoma and HEK293 human embryonic kidney cell lines were cultured to confluence in CytoOne T75 vented cell culture flasks (USA Scientific). The cells were counted using a haemocytometer and passaged/plated into CytoOne 96 well plates (USA Scientific). […] Absorbance readings were measured at 570 nm using a 96 well plate reader. The percentage of viable cells in treated and untreated cultures was calculated and compared. […] The cell viability data was expressed as the mean±standard deviation (SD) from three independent experiments. The IC50 values were calculated using the non-linear regression test which briefly involves conversion of the ezetimibe concentrations to log values. […]

[4] = system: HEK293 human embryonic kidney cells; experiment: MTT assay for cell viability, HEK293 normal embryonic kidney cells; format: cell-based; conditions: 0.1-200 μM, 48 hours
Description: as §1

[5] = system: A375 human malignant melanoma cells; experiment: MTT assay for cell viability, A375 malignant melanoma cells; format: cell-based; conditions: for IC50: A375, MTT, 48 hours, nonlinear regression, read-out: IC50, growth inhibition of melanoma cell line
Description: The A375 human malignant melanoma cells, PANC-1 pancreatic cancer cells and HEK293 human embryonic kidney cells were cultured in media containing 89% DMEM, 10% FBS and 1% penicillin-streptomycin. Once confluent, the cells were washed thrice with 1×PBS and detached from T75 flasks by incubating the cells with 2 mL trypsin-EDTA for 5-10 minutes at 37° C. 2 mL DMEM was added to the cells to stop the reaction of trypsin-EDTA. […] The intensity of this colour is proportional to the state of metabolic activity in the cells and therefore the extent of cell viability. MTT is therefore used to measure the extent to which the drugs are toxic. PANC-1 pancreatic cancer, A375 malignant melanoma and HEK293 human embryonic kidney cell lines were cultured to confluence in CytoOne T75 vented cell culture flasks (USA Scientific). The cells were counted using a haemocytometer and passaged/plated into CytoOne 96 well plates (USA Scientific). Approximately 5 000 cells per 200 μl were plated. The plates were incubated overnight to allow for attachment. The medium was removed after overnight incubation. […] After incubation for 48 hours, 20 μL of MTT reagent was added and incubated for 4 hours. Approximately 200 μL of the solubilisation reagent was added to each well and incubated overnight. The MTT assay was performed using the cell proliferation kit I (MTT) (Roche, Switzerland) by following the instructions in the manual. Absorbance readings were measured at 570 nm using a 96 well plate reader. The percentage of viable cells in treated and untreated cultures was calculated and compared. All statistical analyses were performed using Prism GraphPad Software (San Diego, Calif. 92108, USA). The cell viability data was expressed as the mean±standard deviation (SD) from three independent experiments. The IC50 values were calculated using the non-linear regression test which briefly involves conversion of the ezetimibe concentrations to log values. The log values were matched with their corresponding cell viability percentages. The one sample T-test and Wilcoxon Signed Rank Test were used to determine the statistical difference between the cell viability percentage in treated cells.

[6] = cited from earlier work
cholesterol absorption = conditions: reported experiments with the initial drug lead; cited from earlier work
Mdm2 = Mdm2 (Homo sapiens, UniProt Q00987); conditions: Warner et al. 2012; cited from earlier work
[7] = ezetimibe and/or the glucuronide metabolite

Chain of Mdm2 (Q00987 whole entry): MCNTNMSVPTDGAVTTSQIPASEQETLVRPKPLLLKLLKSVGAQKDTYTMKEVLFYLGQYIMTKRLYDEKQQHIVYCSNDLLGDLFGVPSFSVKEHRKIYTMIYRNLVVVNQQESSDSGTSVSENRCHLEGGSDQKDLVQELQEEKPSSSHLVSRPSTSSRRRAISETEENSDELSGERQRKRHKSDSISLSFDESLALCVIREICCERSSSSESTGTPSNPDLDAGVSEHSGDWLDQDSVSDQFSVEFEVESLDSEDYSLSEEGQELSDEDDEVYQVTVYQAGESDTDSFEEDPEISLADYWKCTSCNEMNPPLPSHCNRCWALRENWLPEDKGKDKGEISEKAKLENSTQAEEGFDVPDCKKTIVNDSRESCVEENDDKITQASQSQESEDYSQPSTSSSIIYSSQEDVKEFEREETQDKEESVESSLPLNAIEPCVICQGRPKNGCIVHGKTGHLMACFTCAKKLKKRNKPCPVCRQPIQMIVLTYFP

Structure (SMILES): COc1cc(/C=C/C(=O)CC(=O)/C=C/c2ccc(O)c(OC)c2)ccc1O [Curcumin]
- Bioavailability [1]: Poor
- Bioavailability ([1]; listed as curcumin): poor bioavailability; also recorded: low bioavailability

- IC50 [3]: 71.6 µM
- IC50 [5]: 30.7 µM
- IC50 ([5]; Homo sapiens, A-375, 48 h): 30.7 µM
Structure (SMILES): O=C1[C@H](CC[C@H](O)c2ccc(F)cc2)[C@@H](c2ccc(O)cc2)N1c1ccc(F)cc1 [Ezetimibe]
- Aqueous Solubility [2]: Poor
- Aqueous Solubility ([2]; listed as ezetimibe): highly insoluble
- Toxicity to normal human embryonic kidney cell line [4]: non-toxic; also recorded: does not exhibit toxicity
- Bioavailability [1]: poor bioavailability; also recorded: Almost negligible
- Bioavailability ([1]; listed as ezetimibe): low bioavailability
- inhibition at 200 µM ([5]; Homo sapiens, A-375, A375, highest concentration, 200 μM, read-out: Inhibition of the melanoma cell line): > 80%
- inhibition at 1 µM ([5]; Homo sapiens, A-375, A375, lowest concentration tested, 1 μM, read-out: Inhibition of the melanoma cell line): ~20%
- Concentrations toxic to cancer cells ([5]; cancer cells (A375 and PANC-1), MTT): 20 to 80 µM
- Fraction metabolised in the intestine to the glucuronide metabolite ([6]; by UGT 1A1, 1A3 and 2B15): Up to 80%
- Excreted in the faeces [6, 7]: 90%
- Excreted in urine [6, 7]: 10%

Structure (SMILES): COc1ccc([C@@H]2[C@@H](CCCc3ccccc3)C(=O)N2c2ccc(OC)cc2)cc1 [SCH48461]
- Inhibition of cholesterol absorption (cholesterol absorption): 70%

Structure (SMILES): COc1ccc(C2=NC(c3ccc(Cl)cc3)C(c3ccc(Cl)cc3)N2C(=O)N2CCNC(=O)C2)c(OC(C)C)c1 (stereo not shown) [nutlin-3a, 4-(4,5-bis(4-chlorophenyl)-2-(2-isopropoxy-4-methoxyphenyl)-4,5-dihydro-1H-imidazole-1-carbonyl) piperazin-2-one]
- Bioavailability [1]: poor bioavailability
- Estimated free energy of binding, kcal/mol (Patch Dock) (Mdm2): −7.7+/−0.6 kcal/mol (Warner et al. 2012)
